Measurements published in patent US11542255B2, “Sulfonylureas and sulfonylthioureas as NLRP3 inhibitors” (Inflazome Limited, priority 2017, dated 2023).
Structures can show the parent of a compound that is named as a salt.

Columns and labels:
[1] = PK protocol, oral administration; type: in vivo, male Sprague Dawley rats; settings: male, Sprague Dawley, rat, plasma, dose (mg/kg); for AUC / CL/F / Cmax / Tmax / half-life: po
Protocol: (§1) Pharmacokinetic parameters were determined in male Sprague Dawley rats (Charles River, UK, 250-350 g; or Vital River Laboratory Animal Technology Co Ltd, Beijing, China, 7-9 weeks old). Animals were individually housed during the study and maintained under a 12 h light/dark cycle. Animals had free access to food and water except that some orally dosed animals were food deprived overnight prior to the study.
(§2) For intravenous administration, compounds were formulated as a solution in water or […] in 2 mL/kg dosing volume and administered via tail vein. For oral administration, compounds were formulated as a solution in water or DMSO:water [10:90] in 5 mL/kg dosing volume and administered orally.
(§3) Serial blood samples (about 120-300 μL) were taken from each animal at each of 8 time-points post dose (0.083, 0.25, 0.5, 1, 2, 4, 8 and 24 h) or at each of 12 time-points post dose (0.03, 0.1, 0.17, 0.25, 0.5, 1, 2, 4, 6, 8, 12 and 24 h) or pre-dose and at each of 9 time-points post dose (0.25, 0.5, 1, 2, 4, 6, 8, 12 and 24 h). Samples were held on ice for no longer than 30 minutes before centrifugation (10,000 rpm (8,385 g) for 3 minutes; or 5,696 rpm (3,0009 for 15 minutes) for plasma generation. Plasma was frozen on dry ice prior to boanalysis. PK parameters were generated from LC-MS/MS data using Dotmatics or Phoenix WinNonlin 6.3 software.

NLRP3 [2] = biological target: T1, NLRP3 (Homo sapiens, UniProt Q96P20); experiment: THP-1 cells pyroptosis assay (LPS + nigericin, resazurin readout); type: cell-based; set-up: Seed THP-1 cells (25,000 cells/well) containing 1.0 μg/ml LPS in 40 μl of RPMI medium; host or cells: THP-1 cells; settings: NLRP3 inhibitory activity, 1.0 μg/ml LPS, 5 μM nigericin
Procedure, shortened: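 LPS-primed (1 μg/ml) THP-1 cells, 25,000/well in serum-free RPMI, given compound (8-point half-log, 10 μM top; 0.1% DMSO) for 3 h at 37 °C, then nigericin 5 μM for 1 h. Viability by resazurin (100 μM, 1-2 h), Ex 560/Em 590 nm; IC50 from 4-parameter variable-slope fit.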

NLRP3 [3] = biological target: T1, NLRP3; experiment: Human whole blood IL1β release assay (LPS + nigericin, AlphaLisa IL-1β); type: cell-based; set-up: Human whole blood in Li-heparin tubes was obtained from healthy donors from a volunteer donor panel; from tissue; host or cells: human whole blood from healthy donors; settings: NLRP3 inhibitory activity, 1 μg/ml LPS, 10 μM nigericin, IL-1β release, read-out: HWB IC50
Procedure, shortened: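 Donor human whole blood (Li-heparin) was primed with 1 μg/mL LPS while incubated with compound (8-point half-log, 10 μM top, 0.1% DMSO) for 3 h at 37° C., then stimulated with 10 μM nigericin for 1 h. Supernatant IL-1β measured by AlphaLISA; IC50 from 4-parameter nonlinear fit.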

[4] = PK protocol, intravenous administration; type: in vivo, male Sprague Dawley rats; settings: male, Sprague Dawley, rat, plasma, dose (mg/kg); for Vd: read-out: Vdss
Protocol: as §1, §2, §3

T1 sequence (Q96P20 whole entry): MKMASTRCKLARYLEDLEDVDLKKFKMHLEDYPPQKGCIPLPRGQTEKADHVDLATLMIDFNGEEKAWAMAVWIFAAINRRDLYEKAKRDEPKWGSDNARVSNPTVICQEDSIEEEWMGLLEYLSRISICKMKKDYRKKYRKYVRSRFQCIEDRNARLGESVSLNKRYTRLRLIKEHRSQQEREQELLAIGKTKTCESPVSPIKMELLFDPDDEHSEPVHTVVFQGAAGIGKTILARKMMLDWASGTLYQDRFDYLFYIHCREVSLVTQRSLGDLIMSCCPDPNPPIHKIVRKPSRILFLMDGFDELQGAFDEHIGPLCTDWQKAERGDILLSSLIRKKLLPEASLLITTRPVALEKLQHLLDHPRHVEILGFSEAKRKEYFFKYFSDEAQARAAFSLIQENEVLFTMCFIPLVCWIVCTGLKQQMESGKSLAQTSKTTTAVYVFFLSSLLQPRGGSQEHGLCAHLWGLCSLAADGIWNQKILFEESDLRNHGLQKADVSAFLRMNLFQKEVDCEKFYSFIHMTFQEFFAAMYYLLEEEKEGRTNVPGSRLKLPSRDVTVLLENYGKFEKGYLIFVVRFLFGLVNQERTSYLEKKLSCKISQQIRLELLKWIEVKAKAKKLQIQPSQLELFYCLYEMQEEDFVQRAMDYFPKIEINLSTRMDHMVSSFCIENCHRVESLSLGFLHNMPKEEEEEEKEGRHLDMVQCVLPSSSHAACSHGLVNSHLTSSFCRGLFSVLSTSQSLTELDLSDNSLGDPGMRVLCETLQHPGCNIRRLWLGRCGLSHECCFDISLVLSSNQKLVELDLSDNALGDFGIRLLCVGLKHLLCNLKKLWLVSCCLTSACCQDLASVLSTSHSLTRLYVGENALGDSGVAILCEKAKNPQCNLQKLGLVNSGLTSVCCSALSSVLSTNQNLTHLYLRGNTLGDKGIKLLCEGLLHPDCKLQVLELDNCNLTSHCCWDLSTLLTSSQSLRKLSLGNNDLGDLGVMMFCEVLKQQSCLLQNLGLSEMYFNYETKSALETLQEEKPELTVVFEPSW

| AUC [1] | CL/F [1] | Cmax [1] | Tmax [1] | half-life [1] | IC50 (NLRP3 [2]) | IC50 (NLRP3 [3]) | AUC [4] | clearance [4] | half-life [4] | Vd [4] | bioavailability [1] | SMILES |
| --- | --- | --- | --- | --- | --- | --- | --- | --- | --- | --- | --- | --- |
| 17000 ng·h/mL | 4.2 mL/min/kg | 7460 ng/mL | 0.38 h | 1.2 h | < 40 nM | < 400 nM | – | – | – | – | – | CC(c1cc(S(=O)(=O)NC(=O)Nc2c3c(cc4c2CCC4)CCC3)nn1C)N(C)C (single isomer, unassigned; enantiomer 1) [Example 69, 5-(1-(Dimethylamino)ethyl)-N-((1,2,3,5,6,7-hexahydro-s-indacen-4-yl)carbamoyl)-1-methyl-1H-pyrazole-3-sulfonamide, Enantiomer 1] |
| 21200 ng·h/mL | 2.4 mL/min/kg | 6690 ng/mL | 1 h | 2.2 h | < 40 nM | 400 to 800 nM | 3480 ng·h/mL | 4.9 mL/min/kg | 1.2 h | 0.36 L/kg | 204% | CN(C)Cc1cc(S(=O)(=O)NC(=O)Nc2c3c(cc4c2CCC4)CCC3)nn1C1CC1 [Example 7, 1-Cyclopropyl-5-((dimethylamino)methyl)-N-((1,2,3,5,6,7-hexahydro-s-indacen-4-yl)carbamoyl)-1H-pyrazole-3-sulfonamide] |
| 19100 ng·h/mL | 1.8 mL/min/kg | 2410 ng/mL | 1.3 h | 3.3 h | 40 to 160 nM | 400 to 800 nM | 11400 ng·h/mL | 1.5 mL/min/kg | 3.5 h | 0.39 L/kg | 84% | CNCc1cc(S(=O)(=O)NC(=O)Nc2c3c(cc4c2CCC4)CCC3)nn1C(C)C [Example 50, N-((1,2,3,5,6,7-Hexahydro-s-indacen-4-yl)carbamoyl)-1-isopropyl-5-((methylamino)methyl)-1H-pyrazole-3-sulfonamide] |
| 5650 ng·h/mL | 12.3 mL/min/kg | 2340 ng/mL | 0.5 h | 2.9 h | 40 to 160 nM | < 400 nM | 4900 ng·h/mL | 5.8 mL/min/kg | 3.2 h | 0.66 L/kg | 45.6% | CC(c1cc(S(=O)(=O)NC(=O)Nc2c3c(cc4c2CCC4)CCC3)nn1C)N1CCC1 (stereo not drawn) [Example 76, 5-(1-(Azetidin-1-yl)ethyl)-N-((1,2,3,5,6,7-hexahydro-s-indacen-4-yl)carbamoyl)-1-methyl-1H-pyrazole-3-sulfonamide] |
| – | – | – | – | – | 160 to 640 nM | 800 to 1600 nM | 4400 ng·h/mL | 3.8 mL/min/kg | 3.2 h | 0.48 L/kg | – | Cn1nc(S(=O)(=O)NC(=O)Nc2c3c(cc4c2CCC4)CCC3)cc1CN1CCC1 [Example 86, 5-(Azetidin-1-ylmethyl)-N-((1,2,3,5,6,7-hexahydro-s-indacen-4-yl)carbamoyl)-1-methyl-1H-pyrazole-3-sulfonamide, Sodium Salt] |
| – | – | – | – | – | 160 to 640 nM | < 400 nM | 1500 ng·h/mL | 11.2 mL/min/kg | 4.3 h | 1.64 L/kg | – | CC(C)c1cc(F)cc(C(C)C)c1NC(=O)NS(=O)(=O)c1cc(CN2CCC2)n(C)n1 [Example 88, 5-(Azetidin-1-ylmethyl)-N-((4-fluoro-2,6-diisopropylphenyl)carbamoyl)-1-methyl-1H-pyrazole-3-sulfonamide, Sodium Salt] |
| – | – | – | – | – | 160 to 640 nM | < 400 nM | 1020 ng·h/mL | 16.3 mL/min/kg | 1.4 h | 1.4 L/kg | – | CCN(C)Cc1cc(S(=O)(=O)NC(=O)Nc2c(C(C)C)cc(F)cc2C(C)C)nn1C [Example 89, 5-((Ethyl(methyl)amino)methyl)-N-((4-fluoro-2,6-diisopropylphenyl)carbamoyl)-1-methyl-1H-pyrazole-3-sulfonamide, sodium Salt] |
| – | – | – | – | – | 160 to 640 nM | 400 to 800 nM | 2620 ng·h/mL | 6.9 mL/min/kg | 4.3 h | 1.03 L/kg | – | CC(C)N(C)Cc1cc(S(=O)(=O)NC(=O)Nc2c3c(cc4c2CCC4)CCC3)nn1C [Example 91, N-((1,2,3,5,6,7-Hexahydro-s-indacen-4-yl)carbamoyl)-5-((isopropyl(methyl)amino)methyl)-1-methyl-1H-pyrazole-3-sulfonamide] |
| – | – | – | – | – | 160 to 640 nM | < 400 nM | 1280 ng·h/mL | 13.1 mL/min/kg | 3.2 h | 2.19 L/kg | – | CC(C)c1cc(F)cc(C(C)C)c1NC(=O)NS(=O)(=O)c1cc(CN(C)C)n(C)n1 [Example 92, 5-((Dimethylamino)methyl)-N-((4-fluoro-2,6-diisopropyl-phenyl)carbamoyl)-1-methyl-1H-pyrazole-3-sulfonamide, Sodium Salt] |
| 3310 ng·h/mL | 18 mL/min/kg | 1100 ng/mL | 0.36 h | – | 40 to 160 nM | 800 to 1600 nM | 4230 ng·h/mL | 10.8 mL/min/kg | 3.3 h | 1.71 L/kg | 31.3% | CC(C)c1cc(Cl)cc(C(C)C)c1NC(=O)NS(=O)(=O)c1cc(CN(C)C)n(C)n1 [Example 93, N-((4-Chloro-2,6-diisopropylphenyl)carbamoyl)-5-((dimethylamino)methyl)-1-methyl-1H-pyrazole-3-sulfonamide, Sodium Salt] |
| 12900 ng·h/mL | 4.1 mL/min/kg | 7180 ng/mL | 0.58 h | 1.5 h | < 40 nM | < 400 nM | 4700 ng·h/mL | 3.8 mL/min/kg | 1.1 h | 0.27 L/kg | 91.6% | CN(C)Cc1cc(S(=O)(=O)NC(=O)Nc2c3c(cc4c2CCC4)CCC3)nn1C [Example 94, 5-((Dimethylamino)methyl)-N-((1,2,3,5,6,7-hexahydro-s-indacen-4-yl)carbamoyl)-1-methyl-1H-pyrazole-3-sulfonamide] |
